Source: patent US7951956B2, “Benzoimidazole compound capable of inhibiting prostaglandin D synthetase” (Taiho Pharmaceuticals Co., Ltd., priority 2005, dated 2011)

How the values were obtained:
[1] = biological target: human hematopoietic synthase (Homo sapiens, UniProt O60760); experiment: Hematopoietic synthase inhibitory activity (Experiment 1); format: biochemical; settings: [14C] prostaglandin H2 10 μM, preincubated at 25° C. for 5 minutes, 1 minute reaction; read-out: Concentration of Pharmaceutical Compound Required to Inhibit 50% of Hematopoietic Synthase
human hematopoietic synthase, sequence (O60760 whole entry): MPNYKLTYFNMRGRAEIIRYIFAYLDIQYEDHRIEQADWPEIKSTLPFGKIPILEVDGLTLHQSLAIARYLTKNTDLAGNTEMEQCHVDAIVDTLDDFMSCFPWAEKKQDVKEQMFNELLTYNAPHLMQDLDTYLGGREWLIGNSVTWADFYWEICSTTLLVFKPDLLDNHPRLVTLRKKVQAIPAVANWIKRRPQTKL

[2] = system: PGD2 amount in bronchoalveolar lavage fluid; experiment: Inhibitory activity for prostaglandin D2 production into bronchoalveolar lavage fluid in rats (Experiment 2); format: in vivo, Brawn Norway rats; settings: 10 mg/kg orally two hours before antigen inhalation; lavage fluid one hour after ovalbumin inhalation; sensitized rats
Experimental: A physiological saline solution containing 1 mg of ovalbumin and 4 mg of alum was subcutaneously injected into the backs of 7-week-old male Brawn Norway rats in an amount of 1 mL/body, and 0.06 mg of killed pertussis bacteria were intraperitoneally injected into each rat to perform active sensitization. Fourteen days after sensitization, the rats inhaled 2% ovalbumin for 10 minutes. One hour after inhalation, bronchoalveolar lavage fluid was collected. The amount of PGD2 in the bronchoalveolar lavage fluid was determined using an EIA kit. Two hours before antigen inhalation, a test compound (10 mg/kg) was orally administered.

[3] = system: antigen-induced nasal congestion; experiment: Ameliorating activity for antigen-induced nasal congestion in guinea pig (Experiment 3); format: in vivo, Std:Hartley guinea pigs; settings: for AUC3-7 hr (nRaw increase %): 3 to 7 hours after induction
Experimental: A physiological saline solution containing 1 mg/mL of ovalbumin was subcutaneously injected into the backs of 5-week-old male Std:Hartley guinea pigs in an amount of 1 mL/body for active sensitization (primary sensitization). One week and two weeks after primary sensitization, 20 μL each of a physiological saline solution containing 10 mg/mL of ovalbumin was instilled into the nasal cavities using a micropipette (sensitization by nasal administration). Three weeks after primary sensitization, 10 μL each of a physiological saline solution containing 20 mg/mL of ovalbumin was instilled into the nasal cavities using a micropipette to induce a rhinitis reaction.
Before, and 10 minutes and 2, 3, 4, 5, 6 and 7 hours after nasal instillation of ovalbumin, the nasal airway resistance per 100 breaths was determined using a comprehensive respiratory function analysis system (“Pulmos-I”, a product of M.I.P.S. Co., Ltd.), and the average at each measurement time was calculated and expressed as nRaw. The increase % of nRaw was calculated according to the following formula. Increase(%)of nRaw at each measurement time=(nRaw at each measurement time−nRaw before induction)÷nRaw before induction×100
Nasal congestion was evaluated by measuring the area under the curve of nRaw increase % during the period of 3 to 7 hours after induction (AUC3-7 hr). “I3-7 hr” refers to the increase of nRaw during the period of 3 to 7 hours after induction. AUC3-7hr=½(I3hr+2×I4hr+2×I5hr+2×I6hr+I7hr)
To confirm the effects on nasal congestion by inhibition of PGD2 production, Compound 15 was selected as a representative compound and orally administered once a day for 15 consecutive days from the day of nasal sensitization performed 1 week after primary sensitization to the day of induction performed 3 weeks after primary sensitization. On the nasal sensitization days (1 week and 2 weeks after primary sensitization) and the induction day, compound 15 was orally administered 1 hour before intranasal instillation of ovalbumin.

SMILES	IC50 [1] [nM]	Inhibition (%) of the PGD2 Amount in Bronchoalveolar Lavage Fluid [2] [%]	melting point	also measured
Cc1oc(C(=O)N2CCCC2)c(C)c1-c1nc2cc(C(=O)c3ccccc3)ccc2[nH]1 [Compound 3, (4-(5-Benzoylbenzimidazol-2-yl)-3,5-dimethyl-2-furanylcarbonyl)pyrrolidine]	178	36		
Cc1[nH]c(C#N)c(C)c1-c1nc2cc(C(=O)c3ccccc3)ccc2[nH]1 [Compound 13, 2-(2-Cyano-3,5-dimethyl-pyrrol-4-yl)-5-benzoylbenzimidazole]	540	48	159 to 163 °C	
CON(C)C(=O)c1[nH]c(C)c(-c2nc3cc(C(=O)c4ccccc4)ccc3[nH]2)c1C [Compound 15, (N-Methoxy-N-methyl)-4-(5-benzoylbenzimidazol-2-yl)-3,5-dimethylpyrrole-2-carboxamide]	256	>72	127 to 132 °C	Inhibition (%) of nasal congestion (AUC3-7 hr) ([3]; 3 mg/kg orally): 60.8%; AUC3-7 hr (nRaw increase %) ([3]; 3 mg/kg orally): 273.9 ± 69.1 % · hr; Inhibition (%) of nasal congestion (AUC3-7 hr) ([3]; 10 mg/kg orally): 76.5%; AUC3-7 hr (nRaw increase %) ([3]; 10 mg/kg orally): 153.5 ± 27.1 % · hr; Inhibition (%) of nasal congestion (AUC3-7 hr) ([3]; 30 mg/kg orally): 92.8%; AUC3-7 hr (nRaw increase %) ([3]; 30 mg/kg orally): 65.7 ± 28.9 % · hr
Cc1[nH]c(C(=O)N2CCOCC2)c(C)c1-c1nc2cc(C(=O)c3ccccc3)ccc2[nH]1 [Compound 40, ((4-(5-benzoylbenzimidazol-2-yl)-3,5-dimethylpyrrol-2-yl)-carbonyl)morpholine]	592	65		
Cc1[nH]c(C(=O)N2CCC=N2)c(C)c1-c1nc2cc(C(=O)c3ccccc3)ccc2[nH]1 [Compound 42, ((4-(5-Benzoylbenzimidazol-2-yl)-3,5-dimethylpyrrol-2-yl)-carbonyl)pyrazoline]	63	88		
Cc1[nH]c(C(=O)N2CCC(C(=O)NCCN(C)C)CC2)c(C)c1-c1nc2cc(C(=O)c3ccccc3)ccc2[nH]1 [Compound 46, N-Dimethylaminoethyl-1-((4-(5-benzoylbenzimidazol-2-yl)-3,5-dimethylpyrrol-2-yl)-carbonyl)piperidine-4-carboxamide]	758		258 to 260 °C	
Cc1cc(C)c(-c2nc3cc(C(=O)c4ccccc4)ccc3[nH]2)[nH]1 [Compound 52, 5-Benzoyl-2-(3,5-dimethylpyrrol-2-yl)-benzimidazole]	4800		225 to 229 °C	
CCOC(=O)c1c(C)[nH]c(-c2nc3cc(C(=O)c4ccccc4)ccc3[nH]2)c1C [Compound 53, 5-(5-Benzoylbenzimidazole-2-yl)-2,4-dimethylpyrrole-3-carboxylic acid ethyl ester]	3080		185 to 187 °C	
O=C(c1ccccc1)c1ccc2[nH]c(-c3ccc(C(=O)O)o3)nc2c1 [Compound 57, 5-(5-Benzoylbenzimidazol-2-yl)-furan-2-carboxylic acid]	4130		170 °C	
Cc1[nH]c(C(=O)NCO)c(C)c1-c1nc2cc(C(=O)c3ccccc3)ccc2[nH]1 [Compound 67, (N-Hydroxymethyl)-4-(5-benzoylbenzimidazol-2-yl)-3,5-dimethylpyrrole-2-carboxamide]	109		196 to 210 °C	
CCOC(=O)c1[nH]c(C)c(-c2nc3cc(Oc4ccccc4)ccc3[nH]2)c1C [Compound 68, 4-(5-Phenoxybenzimidazole-2-yl)-3,5-dimethylpyrrole-2-carboxylic acid ethyl ester]	210		239 to 242 °C	
Cc1[nH]c(C(=O)O)c(C)c1-c1nc2cc(Oc3ccccc3)ccc2[nH]1 [Compound 69, 4-(5-Phenoxybenzimidazole-2-yl)-3,5-dimethylpyrrole-2-carboxylic acid]	491		167 to 172 °C (dec.)	
Cc1[nH]c(C(=O)N2CCCC2)c(C)c1-c1nc2cc(Oc3ccccc3)ccc2[nH]1 [Compound 70, ((4-(5-Phenoxybenzimidazole-2-yl)-3,5-dimethylpyrrol-2-yl)-2-carbonyl)pyrrolidine]	614		251 to 254 °C	
O=C(Nc1cccc2c(=O)cc(-c3nnn[nH]3)oc12)c1ccc(OCCCCc2ccccc2)cc1 [Pranlukast, reference compound]				Inhibition (%) of nasal congestion (AUC3-7 hr) ([3]; 30 mg/kg orally): 81.5%; AUC3-7 hr (nRaw increase %) ([3]; 30 mg/kg orally): 126.3 ± 41.7^$$ % · hr
O=C(O)CCn1c2c(c3ccccc31)C[C@H](NS(=O)(=O)c1ccc(F)cc1)CC2 [Ramatroban, reference compound]				Inhibition (%) of nasal congestion (AUC3-7 hr) ([3]; 30 mg/kg orally): 70.9%; AUC3-7 hr (nRaw increase %) ([3]; 30 mg/kg orally): 183.4 ± 29.3^$$ % · hr
